Source: patent US20240122932A1, “Methods of Treating B-Cell Malignancy Using Bcl-2 Inhibitor” (BeiGene Switzerland GmbH, priority 2021, published 2024)

Legend:
[1] = tested on: MAVER-1 mantle cell lymphoma (MCL) subcutaneous xenograft; experiment: MAVER-1 MCL subcutaneous xenograft model; assay type: in vivo, NCG mice
Experimental: MAVER-1 cells are of mantle cell lymphoma (MCL) origin and were obtained from American Type Culture Collection (ATCC CRL-3008, Manassas, VA, DC, USA). Cells were grown in RPM 1640 medium (Corning, Cat #10-040-CVR), supplemented with 10% (v/v) fetal bovine serum (Gibco, Cat #10099-141C), and 100 μg/mL of penicillin and streptomycin (Gibco, Cat #15140-122). MAVER-1 cells were maintained as suspension cell cultures at 37° C. in a 5% CO2 atmosphere. Five to six-week-old female NCG mice were purchased from Gempharmatech of Information Technology Center. All animals were maintained under specific pathogen free (SPF) “full barrier” condition with free access to food and water. Mice were group-housed under a 12 h light:dark cycle (lights on at 08:00 h), at a temperature of 21-26° C. and 44-61% humidity in IVC cages (Lingyunboji (Beijing) Technology Co., Ltd.). Mice were fed with complete granulated feed with Co60 radiosterilization (Beijing Ke Ao Xie Li Feed Co., Ltd.).
On the day of implantation, MAVER-1 cells were harvested and re-suspended with appropriate volume of ice cold DPBS and same volume of Matrigel (Corning, Cat #356237) to give a final concentration of 1.5×10^7 cells/mL. Re-suspended cells were placed on ice prior to inoculation. The right front flank region of each mouse was cleaned with 75% ethanol prior to cell inoculation. Each animal was injected subcutaneously with 3×10^6 cells in 200 μL of cell suspension in the right front flank via a 26-gauge needle. After implantation, primary tumor volume was measured in two dimensions using a caliper.
Animals were randomly assigned into 7 groups with 10 mice per group according to body weight and tumor volume (100 mm^3-200 mm^3). The groups consisted of vehicle group, 5, 15 mg/kg of venetoclax with QD dosing, 5, 15 mg/kg of Compound 1 with QD dosing, and 2.5, 7.5 mg/kg of Compound 1 with BID dosing. Treatments were administered by oral gavage (p.o.) in a volume of 10 mL/kg body weight. Body weight was assessed immediately before dosing and volume dosed was adjusted accordingly.
(§1) Individual body weight was recorded twice weekly, with mice being monitored daily for clinical signs of toxicity for the duration of the study. Mice were euthanized using carbon dioxide when their tumor volume reached 2,000 mm^3, the tumor was ulcerated, or body weight loss exceeded 20%.
(§2) Tumor volume was calculated using the formula: V=0.5×(a×b^2) where a and b are the long and short diameters of the tumor, respectively. Tumor growth inhibition (TGI) was calculated using the following formula: % TGI=100×[1−(treatedt−treatedt0)/(vehiclet−vehiclet0)] (treated t=treated tumor volume at time t, treated t0=treated tumor volume at time 0, vehicle t=vehicle tumor volume at time t and vehicle t0=vehicle tumor volume at time 0)

[2] = tested on: Toledo diffuse large B cell lymphoma (DLBCL) subcutaneous xenograft; experiment: Toledo DLBCL subcutaneous xenograft model; assay type: in vivo, NCG mice
Experimental: Toledo cells are of diffuse large B cell lymphoma (DLBCL) origin and were obtained from American Type Culture Collection (ATCC CRL-2631, Manassas, VA, DC, USA). Cells were grown in RPMI 1640 medium (Corning. Cat #10-040-CVR), supplemented with 10% (v/v) fetal bovine serum (Gibco, Cat #10099-141C), and 100 μg/mL of penicillin and streptomycin (Gibco, Cat #15140-122). Toledo cells were maintained as suspension cell cultures at 37° C. in a 5% CO2 atmosphere. Five to six-week-old female NCG mice were purchased from Gempharmatech of Information Technology Center. All animals were maintained under specific pathogen free (SPF) “full barrier” condition with free access to food and water. Mice were group-housed under a 12 h light:dark cycle (lights on at 08:00 h), at a temperature of 21-26° C. and 35-61% humidity in IVC cages (Lingyunboji (Beijing) Technology Co., Ltd.). Mice were fed with complete granulated feed with Co60 radiosterilization (Beijing Ke Ao Xie Li Feed Co., Ltd.).
On the day of implantation, Toledo cells were harvested and re-suspended with appropriate volume of ice cold DPBS and same volume of Matrigel (Corning, Cat #356237) to give a final concentration of 1.5×10^7 cells/mL. Re-suspended cells were placed on ice prior to inoculation. The right front flank region of each mouse was cleaned with 75% ethanol prior to cell inoculation. Each animal was injected subcutaneously with 3×10^6 cells in 200 μL of cell suspension in the right front flank via a 26-gauge needle. After implantation, primary tumor volume was measured in two dimensions using a caliper.
Transplanted animals were randomized into 10 groups with 10 mice per group on day 0 according to transplantation sequence and body weight. The groups consisted of vehicle group, 5, 15, 50 mg/kg of venetoclax with QD dosing, 5, 15, 50 mg/kg of Compound 1 with QD dosing, and 2.5, 7.5, 25 mg/kg of Compound 1 with BID dosing. Treatments were administered by oral gavage (p.o.) in a volume of 10 mL/kg body weight. Body weight was assessed immediately before dosing and volume dosed was adjusted accordingly.
as §1, §2

[3] = same total daily doses of 5 and 15 mg/kg

Structure (SMILES)	Mean Tumor volume (Day 14) (mm^3 ± SEM) ([1]; 5 mg/kg QD × 17 p.o.) [mm^3]	TGI (Day 14) ([1]; 5 mg/kg QD × 17 p.o.) [%]	Mean Tumor volume (Day 14) (mm^3 ± SEM) ([1]; 15 mg/kg QD × 17 p.o.) [mm^3]	TGI (Day 14) ([1]; 15 mg/kg QD × 17 p.o.) [%]	Mean Tumor volume (Day 31) (mm^3 ± SEM) ([2]; 5 mg/kg QD × 31 p.o.) [mm^3]	TGI (Day 31) ([2]; 5 mg/kg QD × 31 p.o.) [%]	Mean Tumor volume (Day 31) (mm^3 ± SEM) ([2]; 15 mg/kg QD × 31 p.o.) [mm^3]	TGI (Day 31) ([2]; 15 mg/kg QD × 31 p.o.) [%]	Mean Tumor volume (Day 31) (mm^3 ± SEM) ([2]; 50 mg/kg QD × 31 p.o.) [mm^3]	TGI (Day 31) ([2]; 50 mg/kg QD × 31 p.o.) [%]	further results
CC(C)c1ccccc1[C@@H]1CCCN1C1CC2(CCN(c3ccc(C(=O)NS(=O)(=O)c4ccc(NCC5CCC(C)(O)CC5)c([N+](=O)[O-])c4)c(Oc4cnc5[nH]ccc5c4)c3)CC2)C1 (stereo partly drawn) [Compound 1, 2-((1H-pyrrolo[2,3-b]pyridin-5-yl)oxy)-N-((4-((((1r,4r)-4-hydroxy-4-methylcyclohexyl)methyl)amino)-3-nitrophenyl)sulfonyl)-4-(2-((S)-2-(2-isopropylphenyl)pyrrolidin-1-yl)-7-azaspiro[3.5]nonan-7-yl)benzamide]	383.5 ± 29.6	86	140.5 ± 5.3	103	679.3 ± 63.2	60	267.4 ± 30.4	84	214.8 ± 19.4	87	Mean Tumor volume (Day 14) (mm^3 ± SEM) ([1]; 2.5 mg/kg BID × 17 p.o.): 511.5 ± 49.9 mm^3; TGI (Day 14) ([1]; 2.5 mg/kg BID × 17 p.o.): 77%; Mean Tumor volume (Day 14) (mm^3 ± SEM) ([1]; 7.5 mg/kg BID × 17 p.o.): 136.2 ± 2.6 mm^3; TGI (Day 14) ([1]; 7.5 mg/kg BID × 17 p.o.): 103%; tumor growth suppression (in words) ([1]; mouse, in vivo): potently suppressed tumor growth in a dose-dependent manner; anti-tumor activity relative to venetoclax [1, 3]: showed more anti-tumor activities relative to venetoclax; Mean Tumor volume (Day 31) (mm^3 ± SEM) ([2]; 2.5 mg/kg BID × 31 p.o.): 515.7 ± 79.1 mm^3; TGI (Day 31) ([2]; 2.5 mg/kg BID × 31 p.o.): 70%; Mean Tumor volume (Day 31) (mm^3 ± SEM) ([2]; 7.5 mg/kg BID × 31 p.o.): 230.5 ± 25.9 mm^3; TGI (Day 31) ([2]; 7.5 mg/kg BID × 31 p.o.): 86%; Mean Tumor volume (Day 31) (mm^3 ± SEM) ([2]; 25 mg/kg BID × 31 p.o.): 182.5 ± 15.9 mm^3; TGI (Day 31) ([2]; 25 mg/kg BID × 31 p.o.): 89%; anti-tumor effects (in words) ([2]; 2.5, 7.5, 25 mg/kg BID or 5, 15, 50 mg/kg QD, oral): induced dose-dependent anti-tumor effects; efficacy compared with venetoclax [2, 3]: significantly better efficacy when compared with venetoclax
CC1(C)CCC(CN2CCN(c3ccc(C(=O)NS(=O)(=O)c4ccc(NCC5CCOCC5)c([N+](=O)[O-])c4)c(Oc4cnc5[nH]ccc5c4)c3)CC2)=C(c2ccc(Cl)cc2)C1 [Venetoclax, reference compound]	1082.1 ± 109.4	38	315.4 ± 23.1	91	1256.5 ± 136.5	26	847.8 ± 109.4	50	258.3 ± 22.6	85	–
